Assay results from patent publication US20240287025A1, “TETRAHYDROQUINOLINE (THQ) COUMPOUNDS” (Centre National de la Recherche Scientifique, priority 2021, published 2024).

Experiments:
Brd4 BD1 = Brd4 BD1 (Homo sapiens (Human), UniProt O60885); experiment: HTRF evaluation of bromodomain inhibitors, Brd4 BD1; assay type: binding; conditions: H4ac4 peptide 50 nM, 4 h at 4° C.
Experimental: (§1) HTRF reagents and buffers were purchased from Cisbio Bioassays. The assay used a terbium (Ill) cryptate donor reagent conjugated to an anti-GST antibody (MAb anti-GST-Tb; GSTTLA), a streptavidin-conjugated acceptor reagent (streptavidin-d2) and Cisbio proprietary buffers (EPlgeneous Binding Domain Diluent and Detection buffer, respectively). GST-tagged bromodomains (BDs) were expressed in E. coli and purified using standard procedures. Incubation of GST-tagged BDs with biotinylated acetylated H4 peptide (H4K5acK8acK12acK16ac, here named H4ac4) brings the donor and acceptor into close proximity and allows for a FRET reaction. GST-tagged proteins in 25 mM Hepes pH 7.5, 150 mM NaCl, 0.5 mM DTT were assayed at a final concentration of 5 nM. Biotinylated H4ac4 peptides were used at a final concentration of 50, 600 nM in assays involving Brd4 BD1, Brd4 BD2, respectively. The antibody-conjugated donor was used at 0.5 nM and the streptavidin-conjugated acceptor was used at ⅛ of the H4ac4 peptide concentration. Inhibitors were tested by performing an eleven-point dilution series with a maximal final concentration of […]. These concentrations allowed a fixed DMSO concentration at 0.2%, critical for a Z′ factor ≥0.8. Components were incubated at 4° C. for 4 h (BD1) or for 24 h (BD2). Experiments were performed in 384-well white plates (Greiner ref. 781080) and analyzed in a ClarioStar plate reader (BMG LABTECH, excitation at 330 nm and emission at 620 and 665 nm, corresponding to the donor and acceptor emission peaks, respectively; the 665/620 ratio is used to calculate the specific HTRF signal) with an integration delay of 60 μs and an integration time of 400 μs.

Brd4 BD2 = Brd4 BD2 (Homo sapiens (Human), UniProt O60885); experiment: HTRF evaluation of bromodomain inhibitors, Brd4 BD2; assay type: binding; conditions: for IC50: HTRF, H4ac4 peptide 600 nM, 24 h at 4° C.; for Selectivity BD2/BD1: ratio of the BD1 and BD2 IC50
Experimental: as §1

J774 mouse macrophages = experiment: Cytotoxicity and anti-inflammatory activity (IL-6/TNFα, AI score) after iBET/LPS treatment; assay type: cell-based; conditions: AI score versus cytotoxicity, FIG. 7
Experimental: J774 mouse macrophages were cultured in DMEM 10% Fetal Calf Serum (FCS) 1% penicillin and streptomycin at 37° C. 5% CO2. […]. Cells were then seeded at 250,000 cells/ml and treated with 1 μM, 10 μM and 100 μM for each iBET and, then, after 30 min, with 100 μg/ml LPS (lipopolysaccharides, Cell Signaling Technology ref: 14011S) to induce inflammatory response. After 24 h, cytotoxicity was evaluated using CytoTox-ONE™ Homogeneous Membrane Integrity Assay and/or CellTiter 96 Non-radioactive Cell Proliferation Assay (Promega) according to manufacturer's instructions. IL6 and TNFα secretion were assessed using respectively IL-6 Mouse ELISA assay and TNFα Mouse ELISA assay (Invitrogen) according to manufacturer's instructions.
Experimental procedure: J774 mouse macrophages were cultured in DMEM 10% Fetal Calf Serum (FCS) 1% penicillin and streptomycin at 37° C. 5% CO2. […] After 24 h, cytotoxicity was evaluated using the Cell Proliferation Kit I (Roche) according to manufacturer's instructions. IC50 were calculated using GraphPad (Prism) using non linear regression curve fit. IL6 and TNF[…] secretion was assessed using respectively IL-6 Mouse and TNFα Mouse ELISA assay (Invitrogen) on cell culture supernatants according to manufacturer's instructions. […]

[1] = test system: LPS-stimulated J774 mouse macrophages cells; experiment: RNA sequencing, gene expression profiles of LPS-stimulated cells; assay type: cell-based; conditions: 10 μM, 6 h, RNAseq
Experimental: Experimental procedure: RNA was extracted from 5 million of LPS-stimulated J774 mouse macrophages cells treated for 6 h with DMSO (negative control), reference iBETs (JQ1 and iBET726, 1 μM) and lead compounds (MLE83 and JUP102, 10 μM) using Trizol (Invitrogen) according to manufacturer's instructions. RNA sequencing was subcontracted to BGI Genomics ([…] Sequencing Technology). FASTQ sequencing files were aligned to mouse genome (GRCm39 assembly) using STAR (v2.7.1a). Bam files were counted using HTSeq framework (v0.11.2). Reads normalization and differential analysis was performed suing SARTools and DESeq2 (v1.22.2) R packages. Genes were considered as differentially expressed when |log 2FC|>1 AND p value <0.05 between control and treated conditions. Gene Set Enrichment Analysis was performed using GSEA v4.2.1 software against the hallmark v7.5 gene sets from the Broad Institute Molecular Signature Database. A detailed description of GSEA methodology and interpretation is provided online (http://www.broadinstitute.org/gsea/doc/GSEAUserGui-deFrame.html).

Structure (SMILES)	IC50 (Brd4 BD1) [nM]	IC50 (Brd4 BD2) [nM]	Selectivity BD2/BD1 (Brd4 BD2)	inflammatory activity/toxicity ratio (J774 mouse macrophages)	GSEA analysis, iBET-associated cellular responses [1]	number of genes impacted, times fewer than JUP102 [1] [times]
C=CCCCC(=O)Nc1ccc(-c2ccc3c(c2)[C@@H](n2cc(-c4ccccc4)nn2)[C@H](C)[C@H](CC)N3C(C)=O)cc1 [XD, N-(4-((2S,3R,4S)-1-acetyl-2-ethyl-3-methyl-4-(4-phenyl-1H-1,2,3-triazol-1-yl)-1,2,3,4-tetrahydroquinolin-6-yl)phenyl)hex-5-enamide]	562	620	1.1	best inflammatory activity/toxicity ratio	reduces inflammatory response and MYC signaling	~10
C#CCOCCOCCOCc1cn([C@@H]2c3cc(C(=O)OC)ccc3N(C(C)=O)[C@@H](CC)[C@H]2C)nn1 [XQ]	16600	1490	11.2	best inflammatory activity/toxicity ratio	reduces inflammatory response and MYC signaling	–
